In the NIST ThermoML archive (doi:10.1016/j.fluid.2018.05.028):

Assay: xn = mol fraction of the nth substance listed
Conditions: 101 kPa, Liquid; for viscosity: Concentric cylinders viscometry; for speed of sound: Single path-length method; for mass density: Vibrating tube method

CCCCCCCCCCCCCCCC [hexadecane] + CCCO
Conditions	mass density [kg/m3]	speed of sound [m/s]	viscosity [mPa·s]
293.15 K, x2 = 0	773.35	1357.4	3.408
293.15 K, x2 = 0.1	773.48	1349.3	3.214
293.15 K, x2 = 0.2	774.05	1342.3	3.093
293.15 K, x2 = 0.3	774.88	1334.9	2.99
293.15 K, x2 = 0.4	776.01	1326.8	2.916
293.15 K, x2 = 0.5	777.51	1317.5	2.845
293.15 K, x2 = 0.6	779.56	1306.4	2.776
293.15 K, x2 = 0.7	782.34	1293.2	2.671
293.15 K, x2 = 0.8	786.35	1275.7	2.541
293.15 K, x2 = 0.9	792.43	1252.8	2.388
298.15 K, x2 = 0	769.87	1338.5	3.035
298.15 K, x2 = 0.1	769.92	1330.3	2.858
298.15 K, x2 = 0.2	770.46	1323.2	2.754
298.15 K, x2 = 0.3	771.25	1315.8	2.665
298.15 K, x2 = 0.4	772.34	1307.7	2.596
298.15 K, x2 = 0.5	773.81	1298.5	2.526
298.15 K, x2 = 0.6	775.81	1287.5	2.463
298.15 K, x2 = 0.7	778.55	1274.5	2.374
298.15 K, x2 = 0.8	782.5	1257.4	2.264
298.15 K, x2 = 0.9	788.52	1234.9	2.131
303.15 K, x2 = 0	766.4	1319.8	2.708
303.15 K, x2 = 0.1	766.38	1311.4	2.55
303.15 K, x2 = 0.2	766.87	1304.3	2.45
303.15 K, x2 = 0.3	767.62	1296.9	2.376
303.15 K, x2 = 0.4	768.67	1288.8	2.314
303.15 K, x2 = 0.5	770.09	1279.7	2.244
303.15 K, x2 = 0.6	772.04	1268.8	2.187
303.15 K, x2 = 0.7	774.73	1256	2.108
303.15 K, x2 = 0.8	778.64	1239.2	2.012
303.15 K, x2 = 0.9	784.59	1217.2	1.89
308.15 K, x2 = 0	762.95	1301.3	2.432
308.15 K, x2 = 0.1	762.83	1292.8	2.288
308.15 K, x2 = 0.2	763.27	1285.6	2.201
308.15 K, x2 = 0.3	763.98	1278.2	2.13
308.15 K, x2 = 0.4	764.98	1270.1	2.073
308.15 K, x2 = 0.5	766.36	1261	2.01
308.15 K, x2 = 0.6	768.26	1250.2	1.952
308.15 K, x2 = 0.7	770.89	1237.6	1.88
308.15 K, x2 = 0.8	774.74	1221.1	1.795
308.15 K, x2 = 0.9	780.63	1199.5	1.687
313.15 K, x2 = 0	759.49	1283.1	2.199
313.15 K, x2 = 0.1	759.29	1274.3	2.067
313.15 K, x2 = 0.2	759.67	1267.1	1.989
313.15 K, x2 = 0.3	760.33	1259.6	1.925
313.15 K, x2 = 0.4	761.29	1251.5	1.871
313.15 K, x2 = 0.5	762.61	1242.4	1.812
313.15 K, x2 = 0.6	764.45	1231.7	1.756
313.15 K, x2 = 0.7	767.03	1219.3	1.691
313.15 K, x2 = 0.8	770.82	1203.1	1.614
313.15 K, x2 = 0.9	776.63	1182	1.515
318.15 K, x2 = 0	756.05	1265	1.996
318.15 K, x2 = 0.1	755.74	1256	1.874
318.15 K, x2 = 0.2	756.07	1248.7	1.8
318.15 K, x2 = 0.3	756.67	1241.2	1.743
318.15 K, x2 = 0.4	757.58	1233	1.69
318.15 K, x2 = 0.5	758.84	1224	1.634
318.15 K, x2 = 0.6	760.62	1213.3	1.58
318.15 K, x2 = 0.7	763.14	1201.1	1.519
318.15 K, x2 = 0.8	766.85	1185.1	1.448
318.15 K, x2 = 0.9	772.59	1164.4	1.357
323.15 K, x2 = 0	752.61	1247.1	1.823
323.15 K, x2 = 0.1	752.19	1237.9	1.708
323.15 K, x2 = 0.2	752.45	1230.5	1.639
323.15 K, x2 = 0.3	753	1222.9	1.587
323.15 K, x2 = 0.4	753.84	1214.7	1.537
323.15 K, x2 = 0.5	755.05	1205.6	1.484
323.15 K, x2 = 0.6	756.76	1195.1	1.432
323.15 K, x2 = 0.7	759.22	1182.9	1.375
323.15 K, x2 = 0.8	762.85	1167.2	1.308
323.15 K, x2 = 0.9	768.51	1147	1.223
328.15 K, x2 = 0	749.18	1229.3	1.671
328.15 K, x2 = 0.1	748.64	1220	1.565
328.15 K, x2 = 0.2	748.83	1212.4	1.499
328.15 K, x2 = 0.3	749.32	1204.7	1.452
328.15 K, x2 = 0.4	750.09	1196.5	1.403
328.15 K, x2 = 0.5	751.23	1187.4	1.352
328.15 K, x2 = 0.6	752.86	1176.8	1.303
328.15 K, x2 = 0.7	755.25	1164.8	1.248
328.15 K, x2 = 0.8	758.8	1149.4	1.186
328.15 K, x2 = 0.9	764.37	1129.5	1.106
333.15 K, x2 = 0	745.74	1211.8	1.537
333.15 K, x2 = 0.1	745.09	1202.2	1.438
333.15 K, x2 = 0.2	745.2	1194.5	1.375
333.15 K, x2 = 0.3	745.61	1186.7	1.331
333.15 K, x2 = 0.4	746.31	1178.5	1.284
333.15 K, x2 = 0.5	747.38	1169.2	1.237
333.15 K, x2 = 0.6	748.93	1158.7	1.19
333.15 K, x2 = 0.7	751.24	1146.8	1.138
333.15 K, x2 = 0.8	754.7	1131.5	1.079
333.15 K, x2 = 0.9	760.17	1112.1	1.004
338.15 K, x2 = 0	742.31	1194.4	1.421
338.15 K, x2 = 0.1	741.53	1184.6	1.329
338.15 K, x2 = 0.2	741.55	1176.7	1.266
338.15 K, x2 = 0.3	741.89	1168.8	1.226
338.15 K, x2 = 0.4	742.52	1160.5	1.179
338.15 K, x2 = 0.5	743.5	1151.2	1.134
338.15 K, x2 = 0.6	744.97	1140.7	1.087
338.15 K, x2 = 0.7	747.19	1128.8	1.039
338.15 K, x2 = 0.8	750.55	1113.7	0.9835
338.15 K, x2 = 0.9	755.91	1094.6	0.9119
343.15 K, x2 = 0	738.88	1177.5	1.316
343.15 K, x2 = 0.1	737.98	1167.2	1.23
343.15 K, x2 = 0.2	737.89	1159.1	1.168
343.15 K, x2 = 0.3	738.15	1151.1	1.131
343.15 K, x2 = 0.4	738.69	1142.7	1.085
343.15 K, x2 = 0.5	739.59	1133.3	1.042
343.15 K, x2 = 0.6	740.96	1122.7	0.9894
343.15 K, x2 = 0.7	743.08	1110.9	0.9461
343.15 K, x2 = 0.8	746.33	1095.9	0.8985
343.15 K, x2 = 0.9	751.58	1077.1	0.8305
